Assay results from PubChem BioAssay (NCI).
“And” between values parts separate entries of the source, which are not always exact repeats. Identical values can stand only once.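 Where inhibition never reached the appropriate level, the endpoint shown equals the highest concentration tested. Otherwise, values were interpolated linearly from a five-concentration, 48-hour dose response in 96-well plates. At the GI50, growth is halved. At the TGI there is no net growth.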

How the values were obtained:
Experiment in all cases: NCI-60 cell line screen, 48 h
[1] = system: SNB-75 CNS
[2] = system: U251 CNS
[3] = system: KM12 colon
[4] = system: NCI-H23 lung
[5] = system: EKVX NSCLC
[6] = system: LXFL 529 NSCLC
[7] = system: RXF 393 renal
[8] = system: KM20L2 colon
[9] = system: SK-MEL-5 melanoma
[10] = system: M19-MEL melanoma
[11] = system: DLD-1 colon
[12] = system: SNB-78 CNS
[13] = system: UO-31 renal
[14] = system: HS 578T breast

Structure (SMILES) | TGI [1] | TGI [2] | TGI [3] | TGI [4] | TGI [5] | TGI [6] | GI50 [7] | TGI [7] | TGI [8] | GI50 [9] | TGI [9] | GI50 [10] | TGI [10] | TGI [11] | TGI [12] | GI50 [13] | TGI [13] | TGI [14]
CC(C)=CCSC1CC2C(CC1(C)O)C2(C)C (centres undefined) | 30.1 µM and 23.7 µM | 28.5 µM and 27.1 µM | 35.7 µM and 27.7 µM | 29.8 µM and 25 µM | 28.3 µM and 31.4 µM | 31.7 µM and 27.1 µM | 2.01 µM and 14.9 µM | 11.2 µM and 28.4 µM | 30.8 µM and 34.9 µM | 14.7 µM and 6.59 µM | 28.5 µM and 20.1 µM | 1.86 µM and 4.26 µM | 3.31 µM and 19.3 µM | 33.4 µM and 27.4 µM | 41.2 µM and 26.3 µM | 14.4 µM and 6.12 µM | 28.2 µM and 20.8 µM | –
COc1ccc(C2S/C(=C\c3ccc(O)cc3)C(=O)N2NC(=O)Cc2ccccc2)cc1 (centres undefined) | > 100 µM | > 100 µM | > 100 µM | > 100 µM | – | > 100 µM | – | > 100 µM | – | – | > 100 µM | – | > 100 µM | > 100 µM | – | – | > 100 µM | –
NC(=O)N1N=C2c3ccccc3SC[C@H]2[C@@H]1c1ccccc1 | – | 50.4 µM | – | > 100 µM | > 100 µM | 94.2 µM | – | 26 µM | 39.8 µM | – | 21.8 µM | – | > 100 µM | 91 µM | 93.3 µM | – | 82.9 µM | –
COC(=O)C1C2C=CC(C2)N1[C@@H](C)c1ccccc1 (some centres undefined) | > 100 µM | > 100 µM | > 100 µM | > 100 µM | > 100 µM | > 100 µM | – | – | > 100 µM | – | > 100 µM | – | > 100 µM | > 100 µM | > 100 µM | – | > 100 µM | –
CC(=O)NC1=C(C)C(=O)c2c(nc3n2CCC3O)C1=N (centres undefined) | 49.1 µM | 26.9 µM | 34.3 µM | 29.7 µM | 37 µM | – | – | – | 36.9 µM | – | 26.2 µM | – | 4.94 µM | 25.1 µM | 8.56 µM | – | 46.6 µM | –
CCC(CC)n1c(C)nc2c1C(=O)c1ccccc1C2=O | > 100 µM | > 100 µM | > 100 µM | 54 µM | > 100 µM | > 100 µM | – | > 100 µM | > 100 µM | – | 37.1 µM | – | 33.4 µM | > 100 µM | > 100 µM | – | > 100 µM | –
Cc1cccc2c1NC(=S)[C@@H]1CCCN1C2=O | > 100 µM | > 100 µM | > 100 µM | > 100 µM | > 100 µM | – | – | > 100 µM | – | – | > 100 µM | – | – | – | – | – | > 100 µM | > 100 µM
COc1ccc2c3c1OC1c4[nH]c5ccccc5c4CC4(O)C(C2)N(C)CCC314 (centres undefined) | > 100 µM | 44.8 µM | > 100 µM | > 100 µM | > 100 µM | – | – | 50.8 µM | – | – | 29.5 µM | – | – | – | – | – | 28.1 µM | 67.7 µM
CC(=O)OC1c2ccccc2CCCCCCC12OCCO2 (centres undefined) | > 100 µM | > 100 µM | > 100 µM | > 100 µM | – | – | – | > 100 µM | > 100 µM | – | > 100 µM | – | – | > 100 µM | > 100 µM | – | > 100 µM | –
C(=C\C(SCc1ccccc1)SCc1ccccc1)/c1ccccc1 | > 10 µM | > 10 µM | > 10 µM | > 10 µM | > 10 µM | – | – | > 10 µM | – | – | > 10 µM | – | – | – | – | – | > 10 µM | > 10 µM
COc1ccc(C(C#N)NNc2nc(C)cc(=O)[nH]2)cc1OC (centres undefined) | > 100 µM | > 100 µM | > 100 µM | > 100 µM | – | > 100 µM | – | > 100 µM | > 100 µM | – | > 100 µM | – | > 100 µM | > 100 µM | > 100 µM | – | > 100 µM | –
COc1ccc(-c2cc(-c3cc(OC)c(OC)c(OC)c3)cc(-c3cc4ccccc4oc3=O)n2)cc1 | 9.61 µM | 12.5 µM | > 100 µM | 29.8 µM | 31.5 µM | – | – | 16.1 µM | – | – | 18.6 µM | – | – | – | – | – | 24.7 µM | 7.14 µM
CSc1ccc(/C=C2\N=C(c3ccccc3)N(c3nc4ccc(Sc5ccccc5)cc4[nH]3)C2=O)cc1 | 45.6 µM | 41.3 µM | 52 µM | > 94.5 µM | > 100 µM | – | – | 56.9 µM | – | – | 27.3 µM | – | – | – | – | – | 68.5 µM | 58.1 µM
CNC(=O)c1[nH]cnc1/N=N/N(C)N | > 100 µM | > 100 µM | > 100 µM | > 100 µM | > 100 µM | – | – | > 100 µM | – | – | > 100 µM | – | – | – | – | – | > 100 µM | > 100 µM
COc1ccc(N=C(Nc2ccc(OC)cc2)C(=Nc2ccc(OC)cc2)Nc2ccc(OC)cc2)cc1 | 8.01 µM | > 100 µM | > 100 µM | > 100 µM | > 100 µM | – | – | > 100 µM | – | – | > 100 µM | – | – | – | – | – | > 100 µM | > 100 µM
C1=C\CCCCN2C[C@H]3CCCC/C=C\CCCCN4CC[C@@H]([C@H](CCCCCC/1)C4)[C@H](C3)C2 | 5.46 µM | 3.41 µM | 4.03 µM | 18.9 µM | 22.5 µM | – | – | 2.99 µM | – | – | 3.12 µM | – | – | – | – | – | 3.16 µM | 4.34 µM
Cc1cc2c(c(C=NCc3ccccc3)c1)OC1(C=C2)Oc2ccccc2C(=O)N1C (centres undefined) | 75.8 µM | 80.3 µM | 64.5 µM | 69.6 µM | 57.6 µM | – | – | 55.9 µM | – | – | 50.3 µM | – | – | – | – | – | 40.9 µM | 63.6 µM
Cc1cn(Cc2ccccc2CCl)c(=O)[nH]c1=O | 30 µM | 21.4 µM | 37.4 µM | 23.3 µM | 33.2 µM | – | – | 23.9 µM | – | – | 20.7 µM | – | – | – | – | – | 24.8 µM | 56.6 µM
O=S1C2=C(Cc3ccccc3)C(Cc3ccccc3)=C1CCc1cccc(c1)CC2 | 27.8 µM | 26.8 µM | 26.7 µM | 28.2 µM | 26.3 µM | – | – | 19.7 µM | – | – | 30 µM | – | – | – | – | – | 25.8 µM | 48.8 µM
Cn1c2ccccc2c(=NNc2ccc(C(=O)O)cc2)c2ccccc21 | 56.5 µM | 41 µM | 50.3 µM | 57.8 µM | 32.2 µM | – | – | 38 µM | – | – | 32.7 µM | – | – | – | – | – | 46.9 µM | 55.9 µM
CC(C)C1CC(O)O[C@@H]([C@@H](C)[C@H]2CC(=O)[C@@H]3[C@@H]4[C@@H](O)[C@H](O)[C@H]5[C@@H](O)[C@H](O)CC[C@]5(C)[C@H]4CC[C@]23C)C1 (some centres undefined) | 54.3 µM | > 100 µM | > 100 µM | > 100 µM | > 100 µM | > 100 µM | – | 28.9 µM | > 100 µM | – | > 100 µM | – | > 100 µM | > 100 µM | > 100 µM | – | > 100 µM | –
CSC1=C(c2ccc(Cl)cc2)SC(N2CCCCC2)N1c1ccc([N+](=O)[O-])cc1 (centres undefined) | 96.2 µM | 56.4 µM | > 100 µM | 85.2 µM | > 100 µM | – | – | > 100 µM | – | – | 29.9 µM | – | – | – | – | – | > 100 µM | > 100 µM
O=C(CC(C(=O)c1ccoc1)c1ccco1)c1ccco1 (centres undefined) | > 100 µM | > 100 µM | > 100 µM | > 100 µM | > 100 µM | – | – | > 100 µM | – | – | > 100 µM | – | – | – | – | – | > 100 µM | > 100 µM
O=C1CCCCc2cccc(O)c21 | > 100 µM | > 100 µM | > 100 µM | > 100 µM | > 100 µM | – | – | > 100 µM | – | – | > 100 µM | – | – | – | – | – | > 100 µM | > 100 µM
